Results reported in ChEMBL document CHEMBL1221410, “Antioxidant flavone glycosides from the leaves of Fargesia robusta” (J Nat Prod, 2010).

Experiments:
[1] = Antioxidant activity assessed as trolox equivalent of ABTS radical scavenging activity after 12 to 16 hrs by spectrophotometry; format: functional
[2] = Antioxidant activity against AAPH-induced lipid peroxidation assessed as trolox equivalent of peroxy radical scavenging activity after 10 mins by ORAC assay; format: functional

**Q.** Which Activity [1] does the source give for C[C@@H]1O[C@@H](O[C@@H]2C(=O)[C@H](O)[C@@H](C)O[C@H]2c2c(O)cc3oc(-c4ccc(O)c(O)c4)cc(=O)c3c2O)[C@H](O)[C@H](O)[C@H]1O here?
**A.** 0.646

**Q.** What about the Activity [2] of the same compound?
**A.** 5.7

**Q.** Which Activity [1] does the source give for C[C@H]1O[C@@H](c2c(O[C@@H]3O[C@H](CO)[C@@H](O)[C@H](O)[C@H]3O)cc3oc(-c4ccc(O)c(O)c4)cc(=O)c3c2O)C[C@H](O)[C@H]1O here?
**A.** 0.332

**Q.** What about the Activity [2] of the same compound?
**A.** 26.8

**Q.** With O=c1cc(-c2ccc(O)c(O)c2)oc2cc(O)c([C@@H]3O[C@H](CO)[C@@H](O)[C@H](O)[C@H]3O)c(O)c12 as the compound, how does the Activity [1] read?
**A.** 1.56

**Q.** And the Activity [2]?
**A.** 66.5

**Q.** Which Activity [1] does the source give for COc1cc(-c2cc(=O)c3c(O[C@@H]4O[C@H](CO)[C@@H](O)[C@H](O)[C@H]4O)cc(O)cc3o2)cc(OC)c1O here?
**A.** 0.063

**Q.** And the Activity [2]?
**A.** 18.2

**Q.** With O=c1c(O)c(-c2ccc(O)c(O)c2)oc2cc(O)cc(O)c12 as the compound, how does the Activity [1] read?
**A.** 3.99

**Q.** What about the Activity [2] of the same compound?
**A.** 8.7

**Q.** For C[C@H]1O[C@@H](c2c(O)cc3oc(-c4ccc(O[C@@H]5O[C@H](CO)[C@@H](O)[C@H](O)[C@H]5O)c(O)c4)cc(=O)c3c2O)C[C@H](O)[C@H]1O, which Activity [1] is on record?
**A.** 0.075

**Q.** What about the Activity [2] of the same compound?
**A.** 8.3
